Assay results taken from ChEMBL document CHEMBL1201862, “PubChem BioAssay data set” (2004).
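Assay format: 96-well plates, 48-hour exposure. At the GI50, growth is halved.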 The source made the active and inactive calls. Cut-off read from the data, not from the text of the source: active = GI50 up to about 1.1 µM and inactive = higher.

Tests used:
Experiment in all cases: NCI tumour cell line growth inhibition, 48 h
HT-29 = system: HT-29
KM12 = system: KM12
Malme-3M = system: Malme-3M
HCT-116 = system: HCT-116
NCI-H460 = system: NCI-H460
IGROV-1 = system: IGROV-1
SK-MEL-5 = system: SK-MEL-5
SK-MEL-2 = system: SK-MEL-2
A498 = system: A498
SF-295 = system: SF-295
SW-620 = system: SW-620
HOP-92 = system: HOP-92
NCI-H23 = system: NCI-H23
HL-60 = system: HL-60
SF-268 = system: SF-268
SK-MEL-28 = system: SK-MEL-28
SNB-19 = system: SNB-19
SK-OV-3 = system: SK-OV-3
RXF 393 = system: RXF 393
UO-31 = system: UO-31

SMILES | GI50 (HT-29) | GI50 (KM12) | GI50 (Malme-3M) | GI50 (HCT-116) | GI50 (NCI-H460) | GI50 (IGROV-1) | GI50 (SK-MEL-5) | GI50 (SK-MEL-2) | GI50 (A498) | GI50 (SF-295) | GI50 (SW-620) | GI50 (HOP-92) | GI50 (NCI-H23) | GI50 (HL-60) | GI50 (SF-268) | GI50 (SK-MEL-28) | GI50 (SNB-19) | GI50 (SK-OV-3) | GI50 (RXF 393) | GI50 (UO-31)
Oc1c(Br)ccc2cccnc12 | 5.3 µM (inactive) | 4.07 µM (inactive) | 3.46 µM (inactive) | 2.05 µM (inactive) | 1.6 µM (inactive) | 0.938 µM (active) | 2.38 µM (inactive) | 11.2 µM (inactive) | 8.81 µM (inactive) | 0.834 µM (active) | 4.81 µM (inactive) | 4.09 µM (inactive) | 1.15 µM (inactive) | 0.326 µM (active) | 0.646 µM (active) | 20.5 µM (inactive) | 5.06 µM (inactive) | 4.21 µM (inactive) | 2.88 µM (inactive) | 1.64 µM (inactive)
N#CC1=C(O)NC(O)=C(C#N)C1c1c(Cl)cccc1Cl | 39.4 µM (inactive) | 22.1 µM (inactive) | 23.1 µM (inactive) | 29 µM (inactive) | 20.9 µM (inactive) | 40.6 µM (inactive) | 27.3 µM (inactive) | 18.8 µM (inactive) | 23.2 µM (inactive) | 34.8 µM (inactive) | 37.2 µM (inactive) | 15.8 µM (inactive) | 29.4 µM (inactive) | 81.5 µM (inactive) | 30.9 µM (inactive) | 22.2 µM (inactive) | 38.6 µM (inactive) | 23.6 µM (inactive) | 7.8 µM (inactive) | 37.9 µM (inactive)
Cc1ccc(C#CS(=O)(=O)C(F)(F)F)cc1 | > 100 µM (inactive) | > 100 µM (inactive) | > 100 µM (inactive) | > 100 µM (inactive) | > 100 µM (inactive) | > 100 µM (inactive) | > 100 µM (inactive) | > 100 µM (inactive) | > 100 µM (inactive) | > 31.6 µM (inactive) | > 100 µM (inactive) | > 100 µM (inactive) | > 100 µM (inactive) | > 31.6 µM (inactive) | > 100 µM (inactive) | > 100 µM (inactive) | > 100 µM (inactive) | > 100 µM (inactive) | > 100 µM (inactive) | > 100 µM (inactive)
COc1ccc(C2c3cc4c(cc3OC(NCCO)C2C)OCO4)cc1 (stereo not given) | 20 µM (inactive) | 31.7 µM (inactive) | 18.7 µM (inactive) | 17.3 µM (inactive) | 22.8 µM (inactive) | 28.8 µM (inactive) | 19.8 µM (inactive) | 19.3 µM (inactive) | 17.3 µM (inactive) | 27.9 µM (inactive) | 34.4 µM (inactive) | 34.3 µM (inactive) | 35.8 µM (inactive) | 22.6 µM (inactive) | 23.2 µM (inactive) | 25.1 µM (inactive) | 28 µM (inactive) | 38.1 µM (inactive) | 23.2 µM (inactive) | 20.5 µM (inactive)
CC(C)CC(N)C(=O)NC(CNC(CCC(N)=O)C(=O)NC(CC(C)C)C(=O)NC(CC(C)C)C(=O)O)Cc1ccc2ccccc2c1 (stereo not given) | > 10 µM (inactive) | > 10 µM (inactive) | > 10 µM (inactive) | > 10 µM (inactive) | > 10 µM (inactive) | > 10 µM (inactive) | > 10 µM (inactive) | > 10 µM (inactive) | > 10 µM (inactive) | > 10 µM (inactive) | > 10 µM (inactive) | > 10 µM (inactive) | > 10 µM (inactive) | > 10 µM (inactive) | > 10 µM (inactive) | > 10 µM (inactive) | > 10 µM (inactive) | > 10 µM (inactive) | > 10 µM (inactive) | > 10 µM (inactive)
COC1C(O)C(n2ncc3c(SC)nc(SC)nc32)OC1C(O)CO (stereo not given) | > 100 µM (inactive) | > 100 µM (inactive) | > 100 µM (inactive) | > 100 µM (inactive) | > 100 µM (inactive) | > 100 µM (inactive) | > 100 µM (inactive) | > 100 µM (inactive) | > 100 µM (inactive) | > 100 µM (inactive) | > 100 µM (inactive) | > 100 µM (inactive) | > 100 µM (inactive) | > 100 µM (inactive) | > 100 µM (inactive) | > 100 µM (inactive) | > 100 µM (inactive) | > 100 µM (inactive) | > 100 µM (inactive) | > 100 µM (inactive)
